Test results published in ChEMBL document CHEMBL3885881, “DrugMatrix”.

Species on record: Rattus norvegicus
Test: DrugMatrix - Regimen: Daily Repeat
Format: toxicity, organism-based, Sprague-Dawley
Parameters: regimen Daily Repeat, gender Male, age 6-8 weeks
Conditions: in vivo, po, route oral GAVAGE, vehicle 100 % SALINE; for ABSOLUTE BASOPHIL / ABSOLUTE EOSINOPHIL / ABSOLUTE LYMPHOCYTE / ABSOLUTE MONOCYTE / ABSOLUTE SEGMENTED NEUTROPHIL / BASOPHIL / EOSINOPHIL / ERYTHROCYTE COUNT / HEMATOCRIT / HEMOGLOBIN / LEUKOCYTE COUNT / LYMPHOCYTE / MEAN CORPUSCULAR HEMOGLOBIN / MEAN CORPUSCULAR HEMOGLOBIN CONCENTRATION / MEAN CORPUSCULAR VOLUME / MONOCYTE / NEUTROPHIL / NUCLEATED RED BLOOD CELLS / PLATELET COUNT: tissue Blood; for ALANINE AMINOTRANSFERASE / ALBUMIN / ALKALINE PHOSPHATASE / ASPARTATE AMINOTRANSFERASE / BLOOD UREA NITROGEN / CARBON DIOXIDE / CHLORIDE / CHOLESTEROL / CREATINE PHOSPHOKINASE / CREATININE / GLUCOSE / LACTATE DEHYDROGENASE / LIPASE / PHOSPHORUS / POTASSIUM / SODIUM / TOTAL BILIRUBIN / TOTAL PROTEIN / URIC ACID: tissue Plasma
[1] = 0 mg/kg, 72 h, dose level Control, time 3 day
[2] = 0 mg/kg, 120 h, dose level Control, time 5 day
[3] = […], 72 h, dose 2.3 mg/Kg, dose level Low, time 3 day
[4] = […], 120 h, dose 2.3 mg/Kg, dose level Low, time 5 day

CC(CN1c2ccccc2Sc2ccccc21)N(C)C (configuration not stated) [PROMETHAZINE]
ABSOLUTE BASOPHIL [1]: 0 CELLS/uL
ABSOLUTE EOSINOPHIL [1]: 65.67 CELLS/uL
ABSOLUTE LYMPHOCYTE [1]: 17283.5 CELLS/uL
ABSOLUTE MONOCYTE [1]: 0 CELLS/uL
ABSOLUTE SEGMENTED NEUTROPHIL [1]: 1284.17 CELLS/uL
BASOPHIL [1]: 0%
EOSINOPHIL [1]: 0.33%
ERYTHROCYTE COUNT [1]: 5.46 x10E6/uL
HEMATOCRIT [1]: 34.28%
HEMOGLOBIN [1]: 13.78 G/DL
LEUKOCYTE COUNT [1]: 18.63 x10E3/uL
LYMPHOCYTE [1]: 92.67%
MEAN CORPUSCULAR HEMOGLOBIN [1]: 25.3 pg
MEAN CORPUSCULAR HEMOGLOBIN CONCENTRATION [1]: 40.22 G/DL
MEAN CORPUSCULAR VOLUME [1]: 62.87 fL
MONOCYTE [1]: 0%
NEUTROPHIL [1]: 7%
NUCLEATED RED BLOOD CELLS [1]: 0 /100WBC
PLATELET COUNT [1]: 1244.83 x10E3/uL
ALANINE AMINOTRANSFERASE [1]: 52.83 u/L
ALBUMIN [1]: 4 G/DL
ALKALINE PHOSPHATASE [1]: 327.67 u/L
ASPARTATE AMINOTRANSFERASE [1]: 78.83 u/L
BLOOD UREA NITROGEN [1]: 13.83 mg/dL
CARBON DIOXIDE [1]: 26.67 mmol/L
CHLORIDE [1]: 99.67 MEQ/L
CHOLESTEROL [1]: 69 mg/dL
CREATINE PHOSPHOKINASE [1]: 350.17 u/L
CREATININE [1]: 0.21 mg/dL
GLUCOSE [1]: 173.83 mg/dL
LACTATE DEHYDROGENASE [1]: 168.33 u/L
LIPASE [1]: 11 u/L
PHOSPHORUS [1]: 12.7 mg/dL
POTASSIUM [1]: 6.88 MEQ/L
SODIUM [1]: 141.68 MEQ/L
TOTAL BILIRUBIN [1]: 0.22 mg/dL
TOTAL PROTEIN [1]: 6.02 G/DL
URIC ACID [1]: 1.9 mg/dL
ABSOLUTE BASOPHIL [2]: 0 CELLS/uL
ABSOLUTE EOSINOPHIL [2]: 14.83 CELLS/uL
ABSOLUTE LYMPHOCYTE [2]: 12880 CELLS/uL
ABSOLUTE MONOCYTE [2]: 90.67 CELLS/uL
ABSOLUTE SEGMENTED NEUTROPHIL [2]: 864.5 CELLS/uL
BASOPHIL [2]: 0%
EOSINOPHIL [2]: 0.17%
ERYTHROCYTE COUNT [2]: 5.83 x10E6/uL
HEMATOCRIT [2]: 35.87%
HEMOGLOBIN [2]: 14 G/DL
LEUKOCYTE COUNT [2]: 13.85 x10E3/uL
LYMPHOCYTE [2]: 92.5%
MEAN CORPUSCULAR HEMOGLOBIN [2]: 24.03 pg
MEAN CORPUSCULAR HEMOGLOBIN CONCENTRATION [2]: 39.03 G/DL
MEAN CORPUSCULAR VOLUME [2]: 61.53 fL
MONOCYTE [2]: 0.67%
NEUTROPHIL [2]: 6.67%
NUCLEATED RED BLOOD CELLS [2]: 0 /100WBC
PLATELET COUNT [2]: 1041.83 x10E3/uL
ALANINE AMINOTRANSFERASE [2]: 56 u/L
ALBUMIN [2]: 4.47 G/DL
ALKALINE PHOSPHATASE [2]: 319 u/L
ASPARTATE AMINOTRANSFERASE [2]: 89.17 u/L
BLOOD UREA NITROGEN [2]: 15.2 mg/dL
CARBON DIOXIDE [2]: 24 mmol/L
CHLORIDE [2]: 104.4 MEQ/L
CHOLESTEROL [2]: 69.5 mg/dL
CREATINE PHOSPHOKINASE [2]: 295.83 u/L
CREATININE [2]: 0.21 mg/dL
GLUCOSE [2]: 124.33 mg/dL
LACTATE DEHYDROGENASE [2]: 325.5 u/L
LIPASE [2]: 14.67 u/L
PHOSPHORUS [2]: 11.45 mg/dL
POTASSIUM [2]: 6.74 MEQ/L
SODIUM [2]: 151.4 MEQ/L
TOTAL BILIRUBIN [2]: 0.23 mg/dL
TOTAL PROTEIN [2]: 6.45 G/DL
URIC ACID [2]: 1.18 mg/dL
ABSOLUTE BASOPHIL [3]: 0 CELLS/uL
ABSOLUTE EOSINOPHIL [3]: 137 CELLS/uL
ABSOLUTE LYMPHOCYTE [3]: 14557.33 CELLS/uL
ABSOLUTE MONOCYTE [3]: 165.33 CELLS/uL
ABSOLUTE SEGMENTED NEUTROPHIL [3]: 1673.67 CELLS/uL
BASOPHIL [3]: 0%
EOSINOPHIL [3]: 1%
ERYTHROCYTE COUNT [3]: 5.52 x10E6/uL
HEMATOCRIT [3]: 34.93%
HEMOGLOBIN [3]: 13.67 G/DL
LEUKOCYTE COUNT [3]: 16.53 x10E3/uL
LYMPHOCYTE [3]: 88.33%
MEAN CORPUSCULAR HEMOGLOBIN [3]: 24.8 pg
MEAN CORPUSCULAR HEMOGLOBIN CONCENTRATION [3]: 39.13 G/DL
MEAN CORPUSCULAR VOLUME [3]: 63.3 fL
MONOCYTE [3]: 1%
NEUTROPHIL [3]: 9.67%
NUCLEATED RED BLOOD CELLS [3]: 0 /100WBC
PLATELET COUNT [3]: 1282.33 x10E3/uL
ALANINE AMINOTRANSFERASE [3]: 48 u/L
ALBUMIN [3]: 4.07 G/DL
ALKALINE PHOSPHATASE [3]: 265 u/L
ASPARTATE AMINOTRANSFERASE [3]: 76 u/L
BLOOD UREA NITROGEN [3]: 13.67 mg/dL
CARBON DIOXIDE [3]: 25.33 mmol/L
CHLORIDE [3]: 102 MEQ/L
CHOLESTEROL [3]: 62.67 mg/dL
CREATINE PHOSPHOKINASE [3]: 306.33 u/L
CREATININE [3]: 0.2 mg/dL
GLUCOSE [3]: 164.67 mg/dL
LACTATE DEHYDROGENASE [3]: 197.33 u/L
LIPASE [3]: 10.33 u/L
PHOSPHORUS [3]: 11.33 mg/dL
POTASSIUM [3]: 6.26 MEQ/L
SODIUM [3]: 142.7 MEQ/L
TOTAL BILIRUBIN [3]: 0.2 mg/dL
TOTAL PROTEIN [3]: 5.87 G/DL
URIC ACID [3]: 1.63 mg/dL
ABSOLUTE BASOPHIL [4]: 0 CELLS/uL
ABSOLUTE EOSINOPHIL [4]: 47.67 CELLS/uL
ABSOLUTE LYMPHOCYTE [4]: 14175.67 CELLS/uL
ABSOLUTE MONOCYTE [4]: 210 CELLS/uL
ABSOLUTE SEGMENTED NEUTROPHIL [4]: 1533.33 CELLS/uL
BASOPHIL [4]: 0%
EOSINOPHIL [4]: 0.33%
ERYTHROCYTE COUNT [4]: 5.54 x10E6/uL
HEMATOCRIT [4]: 35.6%
HEMOGLOBIN [4]: 13.8 G/DL
LEUKOCYTE COUNT [4]: 15.97 x10E3/uL
LYMPHOCYTE [4]: 89%
MEAN CORPUSCULAR HEMOGLOBIN [4]: 24.93 pg
MEAN CORPUSCULAR HEMOGLOBIN CONCENTRATION [4]: 38.77 G/DL
MEAN CORPUSCULAR VOLUME [4]: 64.27 fL
MONOCYTE [4]: 1.33%
NEUTROPHIL [4]: 9.33%
NUCLEATED RED BLOOD CELLS [4]: 0 /100WBC
PLATELET COUNT [4]: 1323 x10E3/uL
ALANINE AMINOTRANSFERASE [4]: 48.67 u/L
ALBUMIN [4]: 4.2 G/DL
ALKALINE PHOSPHATASE [4]: 312 u/L
ASPARTATE AMINOTRANSFERASE [4]: 76.33 u/L
BLOOD UREA NITROGEN [4]: 12.67 mg/dL
CARBON DIOXIDE [4]: 22 mmol/L
CHLORIDE [4]: 103.67 MEQ/L
CHOLESTEROL [4]: 67.67 mg/dL
CREATINE PHOSPHOKINASE [4]: 212 u/L
CREATININE [4]: 0.17 mg/dL
GLUCOSE [4]: 187 mg/dL
LACTATE DEHYDROGENASE [4]: 113 u/L
LIPASE [4]: 9 u/L
PHOSPHORUS [4]: 11.2 mg/dL
POTASSIUM [4]: 6.01 MEQ/L
SODIUM [4]: 144.6 MEQ/L
TOTAL BILIRUBIN [4]: 0.17 mg/dL
TOTAL PROTEIN [4]: 6.07 G/DL
URIC ACID [4]: 2.13 mg/dL
